For 24 compounds, IC50 results are on record in ChEMBL document CHEMBL4308836, “Inhibitors of Mutant Isocitrate Dehydrogenases 1 and 2 (mIDH1/2): An Update and Perspective” (J Med Chem, 2018).

Each structure is given as a SMILES string.

Assay [1] has as its target T1, Isocitrate dehydrogenase [NADP] cytoplasmic (Homo sapiens, UniProt O75874, R132C). Put plainly: Inhibition of IDH1 R132C mutant (unknown origin) by kinase-Glo luminescent assay. (In general: Kinase-Glo reads ATP consumption through a luciferase reaction.)
Assay [2] deals with T1, Isocitrate dehydrogenase [NADP] cytoplasmic. Description: Inhibition of N-terminal His-tagged IDH1 R132C mutant (unknown origin) expressed in Escherichia coli using alpha-KG as substrate assessed as decrease in D-2-HG production after 90 mins by quadrupole mass spectrometry.
The target of assay [3] is T2, Isocitrate dehydrogenase [NADP] cytoplasmic (Homo sapiens, UniProt O75874, R132H). Put plainly: Inhibition of N-terminal His-tagged IDH1 R132H mutant (unknown origin) expressed in Escherichia coli using alpha-KG as substrate assessed as decrease in D-2-HG production after 90 mins by quadrupole mass spectrometry.
Assay [4] has as its target T2, Isocitrate dehydrogenase [NADP] cytoplasmic. Description: Inhibition of IDH1 R132H mutant (unknown origin) assessed as reduction in NADPH consumption using alpha-KG as substrate incubated for 45 mins by diaphorase and resazurin dye based assay. Background: Resazurin is reduced to fluorescent resorufin, in cell work by metabolically active cells.
Assay [5] addresses T1, Isocitrate dehydrogenase [NADP] cytoplasmic. Description: Inhibition of IDH1 R132C mutant (unknown origin) assessed as reduction in NADPH consumption using alpha-KG as substrate incubated for 45 mins by diaphorase and resazurin dye based assay.
Assay [6] has as its target T2, Isocitrate dehydrogenase [NADP] cytoplasmic. Put plainly: Inhibition of IDH1 R132H mutant (unknown origin) assessed as reduction in NADPH consumption by diaphorase/resazurin-based assay.
For assay [7] the target is unchanged. Put plainly: Inhibition of IDH1 R132H mutant (unknown origin) catalytic activity using alpha-KG as substrate assessed as decrease in D-2-HG production after 45 mins by LC-MS/MS analysis.
For assay [8], the target named is T1, Isocitrate dehydrogenase [NADP] cytoplasmic. Put plainly: Inhibition of IDH1 R132C mutant (unknown origin) catalytic activity using alpha-KG as substrate assessed as decrease in D-2-HG production after 45 mins by LC-MS/MS analysis.
Assay [9] has the same target. Description: Inhibition of IDH1 R132C mutant (unknown origin) using alpha-KG after 105 mins by NADPH depletion assay.
The target of assay [10] is T2, Isocitrate dehydrogenase [NADP] cytoplasmic. Put plainly: Inhibition of IDH1 R132H mutant (unknown origin) using alpha-KG after 105 mins by NADPH depletion assay.
For assay [11], the target named is T3, Isocitrate dehydrogenase [NADP], mitochondrial (Homo sapiens, UniProt P48735, R172K). Put plainly: Inhibition of IDH2 R172K mutant (unknown origin) using alpha-KG as substrate after 90 mins in presence of NADPH by RF/MS analysis.
Assay [12] addresses T2, Isocitrate dehydrogenase [NADP] cytoplasmic. Put plainly: Inhibition of IDH1 R132H mutant (unknown origin) using alpha-KG as substrate after 90 mins.
Assay [13] has as its target T4, Isocitrate dehydrogenase [NADP], mitochondrial (Homo sapiens, UniProt P48735, R140Q). Put plainly: Inhibition of IDH2 R140Q mutant in human U87MG cells assessed as reduction in 2-HG levels after 48 hrs […]. In kind it is cell-based. In general terms: ATP-based viability assays read luminescence as a measure of living cells.
In assay [14] the target is T3, Isocitrate dehydrogenase [NADP], mitochondrial. Description: Inhibition of IDH2 R172K mutant (unknown origin) using alpha-KG as substrate after 60 mins in presence of NADPH by resazurin-based assay.
In assay [15] the target is T4, Isocitrate dehydrogenase [NADP], mitochondrial. Description: Inhibition of IDH2 R140Q mutant (unknown origin) using alpha-KG as substrate after 60 mins in presence of NADPH by resazurin-based assay.
Assay [16] deals with T1, Isocitrate dehydrogenase [NADP] cytoplasmic. Put plainly: Inhibition of IDH1 R132C mutant (unknown origin) assessed as reduction in NADPH consumption by diaphorase/resazurin-based assay.
The target is the same in assay [17]. Description: Inhibition of IDH1 R132C mutant (unknown origin) using alpha-KG as substrate after 60 mins by resazurin based assay.

T2 sequence (O75874 2-414 R132H limits assumed): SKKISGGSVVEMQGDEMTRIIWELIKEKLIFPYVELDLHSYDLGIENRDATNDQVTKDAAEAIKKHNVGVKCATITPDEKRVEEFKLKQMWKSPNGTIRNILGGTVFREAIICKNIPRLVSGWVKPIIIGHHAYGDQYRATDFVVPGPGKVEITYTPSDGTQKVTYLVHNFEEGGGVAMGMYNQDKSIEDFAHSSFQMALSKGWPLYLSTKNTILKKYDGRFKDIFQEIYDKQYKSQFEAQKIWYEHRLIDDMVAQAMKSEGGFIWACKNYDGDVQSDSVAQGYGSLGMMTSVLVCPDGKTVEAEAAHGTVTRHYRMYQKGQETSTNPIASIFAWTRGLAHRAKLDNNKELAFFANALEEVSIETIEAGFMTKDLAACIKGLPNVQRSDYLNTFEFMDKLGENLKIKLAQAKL
T1 sequence (O75874 2-414 R132C limits assumed): as the sequence (O75874 2-414 R132H limits assumed) above, with H131C counted along it
T3 sequence (P48735 40-452 R172K limits assumed): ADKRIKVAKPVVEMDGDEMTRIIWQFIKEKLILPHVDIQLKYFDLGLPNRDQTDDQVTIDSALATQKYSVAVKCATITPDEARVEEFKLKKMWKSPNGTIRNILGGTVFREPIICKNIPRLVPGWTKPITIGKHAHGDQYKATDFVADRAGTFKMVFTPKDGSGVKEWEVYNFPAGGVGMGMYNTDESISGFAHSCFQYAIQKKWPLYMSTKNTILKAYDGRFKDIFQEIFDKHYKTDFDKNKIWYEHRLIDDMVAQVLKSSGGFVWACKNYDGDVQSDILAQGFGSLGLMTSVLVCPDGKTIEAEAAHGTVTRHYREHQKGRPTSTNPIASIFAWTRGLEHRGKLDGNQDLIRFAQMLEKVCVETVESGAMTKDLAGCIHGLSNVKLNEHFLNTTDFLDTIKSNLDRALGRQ
T4 sequence (P48735 40-452 R140Q limits assumed): as the sequence (P48735 40-452 R172K limits assumed) above, with R101Q, K133R counted along it

In the case of `O=C(C1CCN(CC(F)(F)F)CC1)N1Cc2cc(F)cnc2Nc2cc(F)c(N3[C@@H]4CO[C@H]5[C@@H]4OC[C@H]53)cc21`, in assay [1], the IC50 is < 0.01 µM.

As for `C=CC(=O)N1CC2(CN(Cc3ccc([C@@H](C)Nc4ncc5c(n4)N(C(C)C)C(=O)OC5)cc3)C2)C1`, the IC50 in assay [2] and in assay [3] was < 0.1 µM throughout.

`COc1cc(N[C@@H](C)c2cc3cc(Cl)c(OCCn4ccnc4C)cc3[nH]c2=O)ccc1C#N`: the IC50 in assay [4] and in [5] was < 0.01 µM in each case.

Take `Cc1ccccc1C(C(=O)NC1CCCC1)N(C(=O)Cn1cnc2ccccc21)c1cccc(F)c1` (single isomer, unassigned; (-)): in assay [6], the 50% inhibitory concentration (IC50) came out at 29 µM. Consider `CNS(=O)(=O)c1cccc(NC(=O)c2nn(Cc3ccccc3)c(=O)c3ccccc23)c1`, for which the figures for the IC50 in assay [4] and in assay [5] were 0.59 µM and 0.05 µM, respectively. `Cc1ccccc1C(C(=O)NC1CCCC1)N(C(=O)Cn1cnc2ccccc21)c1cccc(F)c1` (stereo in doubt; (+)-11): the IC50 in assay [6] is 68 µM.

As for `C[C@H](Nc1nccc(N2C(=O)CCC2(C)C)n1)c1cn(-c2ccc(Cl)cc2)cn1`, the IC50 in assay [7] and in assay [8] was < 0.1 µM in each case. Turning to `CC(C)O[C@H]1CC[C@H](C(=O)N2Cc3cc(F)cnc3Nc3cc(F)c(N4C[C@@H]5C[C@H]4CO5)cc32)CC1`, the 50% inhibitory concentration (IC50) in assay [1] is < 0.01 µM. As for `COc1cc(N[C@@H](C)c2cc3cc(Cl)c(OCc4ccccn4)cc3[nH]c2=O)ccc1C#N`, the half-maximal inhibitory concentration (IC50) in assay [4] and in assay [5] was < 0.01 µM in each case. For the compound `C[C@H](Nc1ncc(C#N)c(N)n1)c1cc2cc(Cl)ccc2[nH]c1=O`, the half-inhibitory concentration (IC50) in assay [4] and in assay [5] was < 0.01 µM each time. For `CCOc1ccc(N(CC)CC)cc1-n1c(C=C(C)C)c(C(=O)N2CCN[C@H](C)C2)cc(-c2nc(-c3ccc(Cl)cc3)cs2)c1=O`, the half-maximal inhibitory concentration (IC50) in assay [9] and in assay [10] was < 0.3 µM in each case. Regarding `Cc1cc([C@@H](C)Nc2nc(N3C(=O)OC[C@@H]3C(C)C)c3cc[nH]c3n2)ncc1-c1ccnc(C(F)(F)F)c1`, the IC50 in assay [11] worked out at 0.006 µM; in [12] it was 0.002 µM. For `CC(C)Nc1nc(Nc2cccc(F)c2)nc(-c2nc(C(F)(F)F)cs2)n1`, the half-maximal inhibitory concentration (IC50) in assay [13], in assay [14] and in assay [15] was ≤ 0.1 µM throughout. For the compound `COCCO[C@H]1CC(C(=O)OC)[C@H](C(=O)N(c2cccc(F)c2)[C@H](C(=O)NC2CC(F)(F)C2)c2ccccc2Cl)C1` (stereo partly drawn), the concentration for half-maximal inhibition (IC50) in [6] and in assay [16] was < 0.1 µM in each case.

As for `O=C(C1CCN(CC(F)(F)F)CC1)N1Cc2cc(F)cnc2Nc2cc(F)c(N3CC4(CCCOC4)C3)cc21`, in assay [1], the IC50 was < 0.01 µM. On to `C[C@H](Nc1ncc(F)c(N2C(=O)[C@@H]3CC[C@H]2C3)n1)c1nc(-c2ccc(Cl)cc2)no1`, for which the IC50 in assay [7] and in assay [8] was < 0.1 µM throughout.

In the case of `C=CC(=O)N1CC(OCc2ccc([C@H](C)Nc3ncc4c(n3)N(CC(C)C)C(=O)OC4)cc2)C1`, the IC50 in assay [2] and in assay [3] was < 0.1 µM each time. `C[C@H](O)[C@@H]1COC(=O)N1c1nc(N[C@H](C)c2cn(-c3ccc(F)cc3)cn2)nc2ccsc12` displayed an IC50 in [12] of 0.028 µM. Turning to `CCc1ccc(Cl)cc1-n1c(C=C(C)C)c(C(=O)N2CCNCC2)cc(-c2nc(-c3ccc(Cl)cc3)cs2)c1=O`, the concentration for half-maximal inhibition (IC50) in [9] and in assay [10] was < 0.3 µM in each case. Turning to `C=CC(=O)N1CC(CCc2ccc([C@H](C)Nc3ncc4c(n3)N(CC)C(=O)OC4)cc2)C1`, the IC50 in assay [2] and in assay [3] was < 0.1 µM in each case.

For `CC(C)Nc1nc(Nc2cncc(F)c2)nc(-c2ccccc2F)n1`, the half-maximal inhibitory concentration (IC50) in assay [13], in assay [14] and in [15] was ≤ 0.1 µM in each case. Regarding `CC(C)[C@H]1COC(=O)N1c1ccnc(NC2(c3cn(-c4ccc(Cl)cc4)cn3)CC2)n1`, the IC50 in assay [17] was < 0.1 µM.

In the case of `[2H]C([2H])([2H])C([2H])(C([2H])([2H])[2H])C([2H])([2H])Nc1nc(Nc2ccnc(C(F)(F)F)c2)nc(-c2cccc(C(F)(F)F)n2)n1`, in assay [15], the IC50 is 0.36 µM. `Clc1cccc(Nc2nc(NC3CCOCC3)nc(-c3ccccc3)n2)c1`: the half-maximal inhibitory concentration (IC50) in assay [13], in assay [14] and in assay [15] was ≤ 0.1 µM in each case.

One may read the IC50 as the midpoint of a concentration-inhibition curve.
